Measured values taken from PubChem BioAssay AID248 (DTP/NCI, 2004).
Where “and” joins values, the source holds several entries; their conditions need not be identical. Identical values can stand only once. Inconclusive results and toxic doses are left out. No stated cut-off is given here; in the data, active means T/C of 150% or more; inactive means T/C below 125%.

System: L1210 leukemia ip in BDF1 mice, survival T/C
Test: NCI In Vivo Anticancer Drug Screen. Data for tumor model L1210 Leukemia (intraperitoneal) in B6D2F1 (BDF1) mice
Details: endpoint: mean survival time, higher = longer survival
How it was run: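 Mice bearing the transplanted tumor received compound or vehicle. Survival of the treated group was divided by that of the vehicle-treated control group to give the ratio.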

[1] = dose: 50.0 mg/kg/injection, schedule: Q01DX009 (ip), vehicle: saline with Tween-80
[2] = dose: 100.0 mg/kg/injection, schedule: Q01DX001 (ip), vehicle: saline
[3] = dose: 100.0 mg/kg/injection, schedule: Q01DX009 (ip), vehicle: saline with Tween-80
[4] = dose: 200.0 mg/kg/injection, schedule: Q01DX001 (ip), vehicle: saline
[5] = dose: 200.0 mg/kg/injection, schedule: Q01DX009 (ip), vehicle: saline with Tween-80
[6] = dose: 25.0 mg/kg/injection, schedule: Q04DX003 (ip), vehicle: Klucel (hydroxypropylcellulose) (HPC)
[7] = dose: 50.0 mg/kg/injection, schedule: Q01DX001 (ip), vehicle: saline
[8] = dose: 50.0 mg/kg/injection, schedule: Q04DX003 (ip), vehicle: Klucel (hydroxypropylcellulose) (HPC)
[9] = dose: 100.0 mg/kg/injection, schedule: Q04DX003 (ip), vehicle: saline with Tween-80
[10] = dose: 200.0 mg/kg/injection, schedule: Q04DX003 (ip), vehicle: saline with Tween-80
[11] = dose: 400.0 mg/kg/injection, schedule: Q04DX003 (ip), vehicle: saline with Tween-80
[12] = dose: 100.0 mg/kg/injection, schedule: Q01DX009 (ip), vehicle: other
[13] = dose: 200.0 mg/kg/injection, schedule: Q01DX009 (ip), vehicle: other
[14] = dose: 400.0 mg/kg/injection, schedule: Q01DX009 (ip), vehicle: other
[15] = dose: 400.0 mg/kg/injection, schedule: Q01DX001 (ip), vehicle: saline
[16] = dose: 100.0 mg/kg/injection, schedule: Q01DX009 (ip), vehicle: Klucel (hydroxypropylcellulose) (HPC)
[17] = dose: 100.0 mg/kg/injection, schedule: Q04DX003 (ip), vehicle: Klucel (hydroxypropylcellulose) (HPC)
[18] = dose: 200.0 mg/kg/injection, schedule: Q01DX009 (ip), vehicle: Klucel (hydroxypropylcellulose) (HPC)
[19] = dose: 200.0 mg/kg/injection, schedule: Q04DX003 (ip), vehicle: Klucel (hydroxypropylcellulose) (HPC)
[20] = dose: 200.0 mg/kg/injection, schedule: Q01DX001 (ip), vehicle: saline with Tween-80
[21] = dose: 100.0 mg/kg/injection, schedule: Q01DX001 (ip), vehicle: Klucel (hydroxypropylcellulose) (HPC)
[22] = dose: 200.0 mg/kg/injection, schedule: Q01DX001 (ip), vehicle: Klucel (hydroxypropylcellulose) (HPC)

Measured: T/C

CCOC(=O)CCNC1CCCCC1
inactive: dose: 100.0 mg/kg/injection, schedule: Q01DX Z (ip), vehicle: methylcellulose (MC) 96 % of control | dose: 200.0 mg/kg/injection, schedule: Q01DX Z (ip), vehicle: methylcellulose (MC) 94 % of control

CC1(C)COP(=O)(O)OC1
inactive: [1] 105 % of control | [2] 101 % of control | [3] 96 % of control | [4] 93 % of control | [5] 91 % of control

BrCCCC[P+](c1ccccc1)(c1ccccc1)c1ccccc1
inactive: dose: 12.5 mg/kg/injection, schedule: Q04DX003 (ip), vehicle: Klucel (hydroxypropylcellulose) (HPC) 95 % of control | [6] 106 % of control | [7] 107 % of control | [8] 98 % of control | [2] 110 % of control

c1ccc(P2(c3ccccc3)(c3ccccc3)C3C4C5C6C4C2C6C53)cc1 (centres undefined)
inactive: [9] 104 % of control | [10] 109 % of control | [11] 90 % of control

O=C(Nc1ccc(Cl)c([N+](=O)[O-])c1)Oc1ccc2ccccc2c1
inactive: [12] 92 % of control | [13] 97 % of control | [14] 107 % of control

O=C(C[n+]1ccc2ccccc2c1)c1ccc2ccccc2c1
inactive: dose: 6.25 mg/kg/injection, schedule: Q01DX009 (ip), vehicle: saline with Tween-80 95 % of control | dose: 12.5 mg/kg/injection, schedule: Q01DX009 (ip), vehicle: saline with Tween-80 87 % of control | dose: 25.0 mg/kg/injection, schedule: Q01DX009 (ip), vehicle: saline with Tween-80 90 % of control

NC(N)=N/N=C/c1c2ccccc2cc2ccccc12
inactive: dose: 15.0 mg/kg/injection, schedule: Q01DX Z (ip), vehicle: carboxymethylcellulose (CMC) 101 % of control | dose: 30.0 mg/kg/injection, schedule: Q01DX Z (ip), vehicle: carboxymethylcellulose (CMC) 101 % of control | dose: 240.0 mg/kg/injection, schedule: Q01DX Z (oral), vehicle: carboxymethylcellulose (CMC) 104 % of control

CCCc1c(CC)c(Cl)nc2ccccc12
inactive: [2] 105 % of control | [4] 103 % of control | [15] 91 % of control

NC(N)=Nc1ccc([N+](=O)[O-])cc1
inactive: dose: 12.5 mg/kg/injection, schedule: Q04DX002 (ip), vehicle: Klucel (hydroxypropylcellulose) (HPC) 103 % of control | dose: 25.0 mg/kg/injection, schedule: Q04DX002 (ip), vehicle: Klucel (hydroxypropylcellulose) (HPC) 98 % of control | dose: 50.0 mg/kg/injection, schedule: Q04DX002 (ip), vehicle: Klucel (hydroxypropylcellulose) (HPC) 103 % of control

CCN1C(=O)CC(=O)N(CC)C1=S
inactive: dose: 50.0 mg/kg/injection, schedule: Q01DX009 (ip), vehicle: Klucel (hydroxypropylcellulose) (HPC) 103 % of control | [16] 101 % of control | [17] 94 % of control | [18] 97 % of control | [19] 89 % of control

O=C(CF)CCl
inactive: dose: 0.87 mg/kg/injection, schedule: Q01DX009 (ip), vehicle: Klucel (hydroxypropylcellulose) (HPC) 102 % of control | dose: 1.75 mg/kg/injection, schedule: Q01DX009 (ip), vehicle: Klucel (hydroxypropylcellulose) (HPC) 105 % of control | dose: 3.5 mg/kg/injection, schedule: Q01DX009 (ip), vehicle: Klucel (hydroxypropylcellulose) (HPC) 110 % of control | dose: 14.0 mg/kg/injection, schedule: Q04DX003 (ip), vehicle: saline 96 % of control | dose: 28.0 mg/kg/injection, schedule: Q04DX003 (ip), vehicle: saline 112 % of control

O=C1c2ccccc2C(=O)N1Cc1cccc(Nc2cc(=O)[nH]c(=O)[nH]2)c1
inactive: [20] 95 % of control

O=C(O)CNC(=O)c1ccc(NC(=O)CBr)cc1
inactive: [7] 104 % of control | [2] 104 % of control | [4] 109 % of control

COc1cc(/C=N\NC(=O)OC(C)(C)C)cc(OC)c1OC
inactive: [1] 95 % of control | [3] 97 % of control | [9] 87 % of control | [5] 97 % of control | [10] 91 % of control

COc1ccc2c(c1)CCC1=C(C)C(=O)CCC12C (centres undefined)
inactive: [21] 102 % of control | [22] 98 % of control | dose: 400.0 mg/kg/injection, schedule: Q01DX001 (ip), vehicle: Klucel (hydroxypropylcellulose) (HPC) 98 % of control

CC(=O)c1ccc2c(c1)N(CCCN1CCN(CCO)CC1)c1ccccc1S2
inactive: dose: 0.78 mg/kg/injection, schedule: Q01DX009 (ip), vehicle: saline 93 % of control and 120 % of control | dose: 1.5 mg/kg/injection, schedule: Q01DX009 (ip), vehicle: saline 106 % of control | dose: 1.56 mg/kg/injection, schedule: Q01DX009 (ip), vehicle: saline 105 % of control and 113 % of control | dose: 3.12 mg/kg/injection, schedule: Q01DX009 (ip), vehicle: Klucel (hydroxypropylcellulose) (HPC) 113 % of control | dose: 3.12 mg/kg/injection, schedule: Q01DX009 (ip), vehicle: saline 102 % of control and 104 % of control and 116 % of control | dose: 6.25 mg/kg/injection, schedule: Q01DX009 (ip), vehicle: saline 103 % of control and 104 % of control | dose: 6.25 mg/kg/injection, schedule: Q04DX003 (ip), vehicle: saline 98 % of control | dose: 12.5 mg/kg/injection, schedule: Q01DX009 (ip), vehicle: Klucel (hydroxypropylcellulose) (HPC) 96 % of control | dose: 12.5 mg/kg/injection, schedule: Q04DX003 (ip), vehicle: saline 115 % of control | dose: 25.0 mg/kg/injection, schedule: Q01DX009 (ip), vehicle: saline 98 % of control

ClC1(Cl)C2C=CC=CCC21 (centres undefined)
inactive: [12] 103 % of control | dose: 100.0 mg/kg/injection, schedule: Q04DX003 (ip), vehicle: other 103 % of control | [13] 97 % of control | dose: 200.0 mg/kg/injection, schedule: Q04DX003 (ip), vehicle: other 92 % of control | [14] 92 % of control

Brc1ccc(N2N=NC3CN(c4ccccc4)CC32)cc1 (centres undefined)
inactive: [9] 88 % of control | [10] 91 % of control | [11] 93 % of control

O=C1OCCN1/N=C/c1ccc([N+](=O)[O-])o1
inactive: [16] 107 % of control | [17] 105 % of control | [18] 110 % of control | [19] 105 % of control | dose: 400.0 mg/kg/injection, schedule: Q01DX009 (ip), vehicle: Klucel (hydroxypropylcellulose) (HPC) 97 % of control | dose: 400.0 mg/kg/injection, schedule: Q04DX003 (ip), vehicle: Klucel (hydroxypropylcellulose) (HPC) 106 % of control

Cc1nc(N)[nH]c(=O)c1CCCNS(=O)(=O)c1ccc(CN)cc1
inactive: [2] 115 % of control | [4] 98 % of control | [15] 101 % of control

CC1CCCCN1C(=O)Nc1ccccc1C(F)(F)F (centres undefined)
inactive: dose: 100.0 mg/kg/injection, schedule: Q01DX001 (ip), vehicle: saline with Tween-80 96 % of control and 97 % of control | [3] 100 % of control and 119 % of control | dose: 100.0 mg/kg/injection, schedule: Q04DX002 (ip), vehicle: saline with Tween-80 96 % of control and 86 % of control | [9] 99 % of control and 91 % of control | [20] 97 % of control and 100 % of control | [5] 106 % of control and 107 % of control | dose: 200.0 mg/kg/injection, schedule: Q04DX002 (ip), vehicle: saline with Tween-80 96 % of control and 99 % of control | [10] 95 % of control and 101 % of control | dose: 400.0 mg/kg/injection, schedule: Q01DX001 (ip), vehicle: saline with Tween-80 100 % of control and 90 % of control | dose: 400.0 mg/kg/injection, schedule: Q01DX009 (ip), vehicle: saline with Tween-80 93 % of control and 116 % of control | dose: 400.0 mg/kg/injection, schedule: Q04DX002 (ip), vehicle: saline with Tween-80 95 % of control and 100 % of control | [11] 91 % of control

COc1ccccc1N=Nc1c(O)n(-c2ccccc2C)c(=S)n(-c2ccccc2)c1=O
inactive: [6] 107 % of control | [8] 105 % of control | [21] 101 % of control | [17] 107 % of control | [22] 95 % of control

O=S(=O)(Nc1ccccc1)c1ccccc1CC(O)(c1ccccc1)c1ccccc1
inactive: dose: 100.0 mg/kg/injection, schedule: Q01DX001 (ip), vehicle: steriod suspending solution 95 % of control | dose: 200.0 mg/kg/injection, schedule: Q01DX001 (ip), vehicle: steriod suspending solution 93 % of control | dose: 400.0 mg/kg/injection, schedule: Q01DX001 (ip), vehicle: steriod suspending solution 87 % of control
